# Experimental data reported in US11000033B2, “Ketone or oxime compound, and herbicide” (NISSAN CHEMICAL CORPORATION, priority 2014, dated 2021).
# What was measured:
# Type in all cases: in vivo
# Lolium multiflorum Lam. = test: Test Example 4: herbicidal effect by soil treatment (symbol K); settings: 320 g/ha
# Outline: (§1)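 Seeds were sown in sterilized diluvial soil, covered with about 1.5 cm of soil, and the soil surface was sprayed with a water-diluted emulsion of the compound at a predetermined rate. Plants grew in a greenhouse at 25° C. to 30° C.; effects were scored visually 3 weeks after application.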
# Apera spica-venti = test: Test Example 4: herbicidal effect by soil treatment (symbol L); settings: 320 g/ha
# Outline: as §1
# rapeseed [1] = test: Test Example 5: effect on crop by foliage application, plastic box (symbol g); settings: 320 g/ha, 3 weeks after application
# Outline: (§2)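 Crop seed is sown alongside grass and broadleaf weed species in spots in sterilized diluvial soil, then covered to a depth of about 1.5 cm. Plants grow in a greenhouse kept at 25° C. to 30° C.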
# Setaria viridis [2] = test: Test Example 4: herbicidal effect by soil treatment (symbol G); settings: 320 g/ha
# Outline: as §1
# Alopecurus myosuroides = test: Test Example 5: herbicidal effect by foliage application, plastic box (symbol J); settings: 320 g/ha, 3 weeks after application
# Outline: (§3)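 Effect is rated 3 weeks after a foliar spray of water-diluted emulsion concentrate at a predetermined herbicide amount. Plants had grown 14 days in a 25° C. to 30° C. greenhouse from seed in sterilized diluvial soil.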
# wheat = test: Test Example 5: effect on crop by foliage application, plastic box (symbol e); settings: 320 g/ha, 3 weeks after application
# Outline: as §2
# Setaria viridis [3] = test: Test Example 5: herbicidal effect by foliage application, plastic box (symbol G); settings: 320 g/ha, 3 weeks after application
# Outline: as §3
# Scirpus juncoides = test: Test Example 1: herbicidal activity, application before weed generation in submerged conditions (symbol B); settings: application herbicide amount 320 g/ha
# Outline: (§4)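 Weeds are sown into submerged alluvial soil alongside transplanted 2.5-leaf rice, and the compound, as an emulsion diluted to a set rate, is applied onto the water before emergence. Rating on the 0–5 herbicidal-ratio scale follows 3 weeks of greenhouse growth at 25–30 °C.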
# corn = test: Test Example 4: effect on crop by soil treatment (symbol c); settings: 320 g/ha
# Outline: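 Grown at 25° C. to 30° C. in a greenhouse, the crops came from seed sown spot-wise in sterilized diluvial soil under roughly 1.5 cm of covering soil.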
# Galium spurium = test: Test Example 5: herbicidal effect by foliage application, plastic box (symbol Q); settings: 320 g/ha, 3 weeks after application
# Outline: as §3
# Leptochloa chinensis = test: Test Example 3: herbicidal effect by foliage application, Wagner pot (symbol D); settings: application herbicide amount 320 g/ha
# Outline: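 Alluvial soil was flooded to a depth of 0.1–0.5 cm, seeded with the weeds and rice, and kept in a greenhouse at 25–30 °C. After 14 days of growth, the foliage received a small-sprayer application of emulsion diluted to the intended rate; injury was rated at 3 weeks.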
# [4] = system: Echinochloa crus-galli var. crus-galli; test: Test Example 5: herbicidal effect by foliage application, plastic box (symbol H); settings: 320 g/ha, 3 weeks after application
# Outline: as §3
# rapeseed [5] = test: Test Example 4: effect on crop by soil treatment (symbol g); settings: 320 g/ha
# Outline: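 Crop seeds, among them rice, wheat, beet and rapeseed, were sown in sterilized diluvial soil and covered with about 1.5 cm of soil. Boxes were kept in a greenhouse at 25° C. to 30° C. for plant growth.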
# Amaranthus retroflexus = test: Test Example 4: herbicidal effect by soil treatment (symbol N); settings: 320 g/ha
# Outline: as §1
# Stellaria media [6] = test: Test Example 5: herbicidal effect by foliage application, plastic box (symbol P); settings: 320 g/ha, 3 weeks after application
# Outline: as §3
# [7] = system: Echinochloa crus-galli var. crus-galli; test: Test Example 4: herbicidal effect by soil treatment (symbol H); settings: 320 g/ha
# Outline: as §1
# Monochoria vaginalis = test: Test Example 1: herbicidal activity, application before weed generation in submerged conditions (symbol C); settings: application herbicide amount 320 g/ha
# Outline: as §4
# Stellaria media [8] = test: Test Example 4: herbicidal effect by soil treatment (symbol P); settings: 320 g/ha
# Outline: as §1
SMILES,"K: Lolium multiflorum Lam., herbicidal effect grade (Lolium multiflorum Lam.)","L: Apera spica-venti, herbicidal effect grade (Apera spica-venti)","g: rapeseed, effect on crop (criteria 0-5) (rapeseed [1])","G: Setaria viridis, herbicidal effect grade (Setaria viridis [2])","J: Alopecurus myosuroides, herbicidal effect (criteria 0-5) (Alopecurus myosuroides)","e: wheat, effect on crop (criteria 0-5) (wheat)","G: Setaria viridis, herbicidal effect (criteria 0-5) (Setaria viridis [3])","Herbicidal effect grade, B: Scirpus juncoides (Scirpus juncoides)","c: corn, effect grade on crop (corn)","Q: Galium spurium, herbicidal effect (criteria 0-5) (Galium spurium)","herbicidal effect on D (Leptochloa chinensis), grade 0-5 (Leptochloa chinensis)","H: Echinochloa crus-galli var. crus-galli, herbicidal effect (criteria 0-5) [4]","g: rapeseed, effect grade on crop (rapeseed [5])","N: Amaranthus retroflexus, herbicidal effect grade (Amaranthus retroflexus)","P: Stellaria media, herbicidal effect (criteria 0-5) (Stellaria media [6])","H: Echinochloa crus-galli var. crus-galli, herbicidal effect grade [7]","Herbicidal effect grade, C: Monochoria vaginalis (Monochoria vaginalis)","P: Stellaria media, herbicidal effect grade (Stellaria media [8])"
C=CC(CC1CC(O)=C(c2c(C)cc(C)cc2C)C1=O)=NOC (stereo not drawn) [1-086],5 (Herbicidal ratio of 90% or more (almost completely withered)),3 (Herbicidal ratio of 40% or higher and lower than 70%),3 (Herbicidal ratio of 40% or higher and lower than 70%),4 (Herbicidal ratio of 70% or higher and lower than 90%),4 (Herbicidal ratio of 70% or higher and lower than 90%),0 (Herbicidal ratio of 5% or lower (almost no effect)),3 (Herbicidal ratio of 40% or higher and lower than 70%),0 (Herbicidal ratio of 5% or lower (almost no effect)),1 (Herbicidal ratio of 5% or higher and lower than 20%),0 (Herbicidal ratio of 5% or lower (almost no effect)),4 (Herbicidal ratio of 70% or higher and lower than 90%),5 (Herbicidal ratio of 90% or more (almost completely withered)),2 (Herbicidal ratio of 20% or higher and lower than 40%),0 (Herbicidal ratio of 5% or lower (almost no effect)),0 (Herbicidal ratio of 5% or lower (almost no effect)),1 (Herbicidal ratio of 5% or higher and lower than 20%),0 (Herbicidal ratio of 5% or lower (almost no effect)),0 (Herbicidal ratio of 5% or lower (almost no effect))
CON=C(C)CC1CC(OC(=O)C2=CCCC2)=C(c2c(C)cc(C)cc2C)C1=O (stereo not drawn) [1-088],5 (Herbicidal ratio of 90% or more (almost completely withered)),5 (Herbicidal ratio of 90% or more (almost completely withered)),4 (Herbicidal ratio of 70% or higher and lower than 90%),5 (Herbicidal ratio of 90% or more (almost completely withered)),5 (Herbicidal ratio of 90% or more (almost completely withered)),5 (Herbicidal ratio of 90% or more (almost completely withered)),5 (Herbicidal ratio of 90% or more (almost completely withered)),5 (Herbicidal ratio of 90% or more (almost completely withered)),4 (Herbicidal ratio of 70% or higher and lower than 90%),0 (Herbicidal ratio of 5% or lower (almost no effect)),5 (Herbicidal ratio of 90% or more (almost completely withered)),5 (Herbicidal ratio of 90% or more (almost completely withered)),4 (Herbicidal ratio of 70% or higher and lower than 90%),1 (Herbicidal ratio of 5% or higher and lower than 20%),3 (Herbicidal ratio of 40% or higher and lower than 70%),5 (Herbicidal ratio of 90% or more (almost completely withered)),0 (Herbicidal ratio of 5% or lower (almost no effect)),0 (Herbicidal ratio of 5% or lower (almost no effect))
CON=C(C)CC1CC(OC(=O)C2=C(Br)CCC2)=C(c2c(C)cc(C)cc2C)C1=O (stereo not drawn) [1-089],5 (Herbicidal ratio of 90% or more (almost completely withered)),5 (Herbicidal ratio of 90% or more (almost completely withered)),4 (Herbicidal ratio of 70% or higher and lower than 90%),5 (Herbicidal ratio of 90% or more (almost completely withered)),5 (Herbicidal ratio of 90% or more (almost completely withered)),5 (Herbicidal ratio of 90% or more (almost completely withered)),5 (Herbicidal ratio of 90% or more (almost completely withered)),5 (Herbicidal ratio of 90% or more (almost completely withered)),5 (Herbicidal ratio of 90% or more (almost completely withered)),0 (Herbicidal ratio of 5% or lower (almost no effect)),5 (Herbicidal ratio of 90% or more (almost completely withered)),5 (Herbicidal ratio of 90% or more (almost completely withered)),4 (Herbicidal ratio of 70% or higher and lower than 90%),3 (Herbicidal ratio of 40% or higher and lower than 70%),0 (Herbicidal ratio of 5% or lower (almost no effect)),5 (Herbicidal ratio of 90% or more (almost completely withered)),3 (Herbicidal ratio of 40% or higher and lower than 70%),0 (Herbicidal ratio of 5% or lower (almost no effect))
CCCC=CC(=O)OC1=C(c2c(C)cc(C)cc2C)C(=O)C(CC(C)=NOC)C1 (stereo not drawn) [1-090],5 (Herbicidal ratio of 90% or more (almost completely withered)),5 (Herbicidal ratio of 90% or more (almost completely withered)),4 (Herbicidal ratio of 70% or higher and lower than 90%),5 (Herbicidal ratio of 90% or more (almost completely withered)),5 (Herbicidal ratio of 90% or more (almost completely withered)),5 (Herbicidal ratio of 90% or more (almost completely withered)),5 (Herbicidal ratio of 90% or more (almost completely withered)),5 (Herbicidal ratio of 90% or more (almost completely withered)),3 (Herbicidal ratio of 40% or higher and lower than 70%),0 (Herbicidal ratio of 5% or lower (almost no effect)),5 (Herbicidal ratio of 90% or more (almost completely withered)),5 (Herbicidal ratio of 90% or more (almost completely withered)),4 (Herbicidal ratio of 70% or higher and lower than 90%),0 (Herbicidal ratio of 5% or lower (almost no effect)),3 (Herbicidal ratio of 40% or higher and lower than 70%),5 (Herbicidal ratio of 90% or more (almost completely withered)),1 (Herbicidal ratio of 5% or higher and lower than 20%),0 (Herbicidal ratio of 5% or lower (almost no effect))
